Source: patent publication US9187784B2, “EphA4 is a disease modifier in motor neuron disease” (VIB VZW, priority 2011, dated 2015)

Experiments:
[1] = tested on: non-transgenic or wild-type SOD1-expressing fish; assay: axonal and total body length in non-transgenic or wild-type SOD1-expressing fish; assay type: in vivo; settings: zebrafish, average ± s.e.m.
Procedure: Y-axes show motor axon length of non-transgenic (black bar) or SOD1WT-expressing (white bar) zebrafish embryos, injected with either atg-RTK2 (shaded bars, Panel A) or atg-RTK1 morpholino (shaded bars, Panel B). Ctr-RTK2 and ctr-RTK1 were used as controls. Error bars are s.e.m.
To identify disease-modifying genes in ALS in an unbiased way, knockdown screening was performed in the mutant SOD1 zebrafish model (reference 13), using a library of 303 translation blocking morpholinos (atg-mo), of which 58 were targeting genes presumed to be neuronally expressed (according to the NCBI database) and 245 randomly chosen targeting genes. […] The morpholino yielding the highest rescue in two separate experiments was studied further. It targets zebrafish receptor tyrosine kinase 2 (RTK2, also known as epha4b), which has 67% identity and 80% homology to the human orthologue EPHA4. Knockdown of RTK2 in fish expressing mutant SOD1 completely and dose-dependently rescued the motor axonopathy (both axonal length and aberrant branching) caused by three different SOD1 mutations: A4V, G93A and G37R (FIG. 1, Panels A-F; Table 2). […] Receptor tyrosine kinase 1 (RTK1, also known as epha4a), the fish paralogue of RTK2, has 83% identity and 92% homology to human EPHA4. RTK1 knockdown was dose-dependently and equally protective as RTK2 knockdown (FIG. 1, Panel G; Table 4). […]

[2] = tested on: zebrafish embryos; assay: Toxicity analysis of Compound 1 in zebrafish embryos (total body shape); assay type: in vivo; settings: for death: read at 30 hpf; for malformed / normal: zebrafish, in vivo, 24 h
Procedure: Different concentrations of C1 were dissolved in the water of 6 hpf-old zebrafish embryos. At 30 hpf, toxicity (%) of C1 was investigated by analyzing total body shape of the embryos.
A morpholino database of translation-blocking morpholinos (atg-mo) was used to perform a morpholino-based knockdown screening in a zebrafish model for ALS.^13 The standard control morpholino (5′-[…]-′3) (SEQ ID NO:4), provided by Gene tools, was used as control. Three nanograms of morpholino were co-injected with […] of SOD1 mRNA and the effect of gene knockdown on the mutant SOD1-induced axonopathy analyzed. Each morpholino was tested in two separate experiments. Only morphologically normal embryos were included for further analysis. Overexpression of SOD1 or TDP-43, applied to validate the protective morpholino, was established by injection of 1.76 ng SOD1 mRNA or 1.43 ng TDP-43 mRNA, respectively. Antisense morpholinos to knockdown zebrafish RTK1, RTK2, Smn and their five base pair-mismatch control morpholinos were developed by Gene tools: atg-RTK1 (5′-[…]-′3) (SEQ ID NO:5), atg-RTK2 (5′-[…]-[…]-′3) (SEQ ID NO:6), splice-RTK2 (5′-[…]-[…]-′3) (SEQ ID NO:7) and atg-smn (5′-[…]-3′) (SEQ ID NO:8). Compound 1 (2,5-dimethylpyrrolyl benzoic acid, Matrix Scientific) dissolved in DMSO was added to the water of 6-hpf-old zebrafish embryos.

| Compound | body length [1] | death ([2]; C1 250 μM in water from 6 hpf) | death ([2]; C1 500 μM in water from 6 hpf) | death ([2]; C1 750 μM in water from 6 hpf) | death ([2]; C1 1000 μM in water from 6 hpf) | malformed ([2]; 250 μM) | normal ([2]; 250 μM) | malformed ([2]; 500 μM) | normal ([2]; 500 μM) | malformed ([2]; 750 μM) | normal ([2]; 750 μM) | malformed ([2]; 1000 μM) | normal ([2]; 1000 μM) |
| --- | --- | --- | --- | --- | --- | --- | --- | --- | --- | --- | --- | --- | --- |
| 5′-CTGTGAACACAAGCGCAGCCATTGG-′3 (all phosphorodiamidate morpholino (PMO)) [atg-RTK1] | 2.61±0.01 mm | – | – | – | – | – | – | – | – | – | – | – | – |
| Cc1ccc(C)n1-c1ccc(C(=O)O)c(O)c1 [Compound C1] | – | 6.12% | 2.80% | 11.2% | 20% | 5.10% | 88.77% | 3.74% | 93.45% | 12.93% | 75.86% | 80% | 0% |
